Literature values as cited in patent US10189872B2, “Crystalline form of nicotinamide riboside” (W. R. Grace & Co.-Conn., priority 2015, dated 2019).

Settings: mice on a high-fat diet supplemented with nicotinamide riboside; 2012 study

In the case of NC(=O)c1ccc[n+]([C@@H]2O[C@H](CO)[C@@H](O)[C@H]2O)c1 [nicotinamide riboside, Nicotinamide riboside], the “less weight gained than mice eating the same high-fat diet without nicotinamide riboside” value is listed as 60%.
